This note sets out measurements from patent US8962838B2, “Platinum complexes and their use” (Westfaelische Wilhelms-Universitaet Muenster, priority 2011, dated 2015).

The test system of this data set is HeLa S3 cells. The experiment in a line: Cytotoxicity experiments, percentage of viable cells by Casy-1 cell counter. The data set is classed as cell-based. Particulars: 24 h incubation. The procedure: Cytotoxicity Experiments: HeLa S3 cells were seeded into 12-well tissue culture dishes in a density of approximately 80000 cells per well. The logarithmically growing cells were cultured for 24 h in Ham's F12 nutrient mixture containing 10% fetal bovine serum, 100 U penicillin per mL and […] streptomycin per mL and incubated at 37° C. with 5% CO2 in air and 100% humidity until the Pt-complexes were added. The cytotoxicity of the Pt-complexes was elucidated by quantifying the percentage of viable cells. Cell viability was measured after 24 h Pt-complex incubation and trypsinizing of cells, by an automatic cell counter (Casy-1, Roche Innovatis AG). These measurements are based on non-invasive (dye-free) electrical current exclusion with signal evaluation via pulse area analysis and allow the structural integrity of cells (membrane integrity and cell death).

On to `C[S+](C)[O-]` [DMSO], for which the “DMSO concentration at which no toxic effect was detectable” value is “Below 1.8%”. For the same compound, the cytotoxicity entry (2.5% DMSO) is “a high amount of viable Hela-S3 cells but still some dead cells were detected”. Also, the cytotoxicity result (DMSO concentration from 10% down to 5%) is recorded as “extremely toxic”.
